From patent publication US8399493B2, “Pyridinone derivatives and their use as positive allosteric modulators of mGluR2-receptors” (Janssen Pharmaceuticals, Inc., priority 2004, dated 2013) come the findings set out here.

One data set deals with T1, native rat mGluR2 (Rattus norvegicus, UniProt P31421).
T1 construct: from tissue; host or cells: rat brain cortex membranes (Sprague-Dawley rats, Charles River Laboratories)
Description: [35S]GTPγS binding assay using cortical rat brain membranes. It counts as biochemical. The settings on record: selective mGluR2 agonist such as LY379268; rat cortical membranes; 3 or 10 μM of positive allosteric modulator. The source says: The [^35S]GTPγS binding is a functional membrane-based assay used to study G-protein coupled receptor (GPCR) function. This method is using a binding assay to assess the initial step in receptor-mediated G protein activation in membranes prepared from cells expressing recombinant GPCR or using membranes from discrete area of the rat brain. In brief, the assay is measuring the activation of G proteins by catalyzing the exchange of guanosine 5′-diphosphate (GDP) by guanosine 5′-triphosphate (GTP) at the α subunit. The GTP-bounded G proteins dissociate into two subunits, Gα-GTP and Gβγ, which in turn regulate intracellular enzymes and ion channels. GTP is rapidly hydrolysed by the Gα-subunit (GTPases) and the G protein is deactivated and ready for new GTP exchange cycle (Harper (1998) Curr Protoc Pharmacol 2.6.1-10, John Wiley & Sons, Inc.). [^35S]GTPγS, a non-hydrolyzed analogue of GTP, is used for this purpose.
This method is widely used to study receptor activation of G protein in membranes prepared from rat brain tissue, including mGluR2 receptors (Schaffhauser et al 2003, Pinkerton et al, 2004). mGluR2 receptors are expressed in the rat brain cortex (Mutel et al (1998) J. Neurochem. 71:2558-64; Schaffhauser et al (1998) Mol. Pharmacol. 53:228-33) and are coupled to Gαi-protein, a preferential coupling for this method.
[^35S]GTPγS binding assay using cortical rat brain membranes preparation was used and adapted from Schaffhauser et al ((2003) Mol. Pharmacol. 4:798-810) for the detection of the positive allosteric modulator properties of the compounds of this invention on native rat mGluR2. In order to eliminate the possible interference with group III Gαi-protein coupled mGluRs (mGluR4, mGluR7, mGluR8; mGluR6 is not expressed in the cortex (Laurie et al (1997) Neuropharmacol. 36:145-52)), the potentiation of the response to a selective mGluR2 agonist, such as DCG-IV (Cartmell et al. (1998) Br. J. Pharmacol. 123(3):497-504) or LY379268 (Monn et al. (1999) J. Med. Chem 42:1027-40), by compounds described in the present invention was performed.
Cortices were dissected out from brains of 200-300 g Sprague-Dawley rats (Charles River Laboratories, L'Arbresle, France). Tissues were homogenized in 6 volumes (vol/wt) of 10% sucrose at 4° C. using a glass-teflon homogenizer. The homogenate was centrifuged at 1250 g for 10 min, and the supernatant was centrifuged at 40,000 g for 20 min (4° C.). The pellet was resuspended in 25 ml water using a Polytron disrupter (Kinematica AG, Luzern, Switzerland) and centrifuged for 10 min at 3000 g. (4° C.). The supernatant was centrifuged at 40,000 g for 20 min (4° C.). The supernatant was discarded and the pellet washed twice by resuspension in 10 volumes 5 mM HEPES-KOH, pH 7.4. The homogenate was frozen and thawed twice and centrifuged at 40,000 g for 20 min. The final pellet was resuspended in 5 mM HEPES-KOH, pH 7.4 and stored at −80° C. before its use. Protein concentration was determined by the Bradford method (Bio-Rad protein assay, Reinach, Switzerland) with bovine serum albumin as standard.
Measurement of mGluR2 positive allosteric modulators properties in rat cortical membranes was performed as follows: rat cortical membrane (1.5 μg) were incubated in 96-well microplates for 15 min at 30° C. in assay buffer (50 mM HEPES pH 7.4, 100 mM NaCl, 5 mM MgCl2, 10 μM GDP, 10 μg/ml saponin, EGTA 0.2 mM) with increasing concentrations of positive allosteric modulator (from 1 nM to 10 μM) and a minimal concentration of DCG-IV or LY379268, a selective mGluR2 agonist, that has been determined in previous experiments and that corresponds to the EC20, a concentration that gives 20% of the maximal response of the agonist, and is in accordance to published data (Pin et al. (1999) Eur. J. Pharmacol. 375:277-294). […]
(In general: Binding of GTPγS marks nucleotide exchange on a G protein.)

T1 sequence (P31421 19-872): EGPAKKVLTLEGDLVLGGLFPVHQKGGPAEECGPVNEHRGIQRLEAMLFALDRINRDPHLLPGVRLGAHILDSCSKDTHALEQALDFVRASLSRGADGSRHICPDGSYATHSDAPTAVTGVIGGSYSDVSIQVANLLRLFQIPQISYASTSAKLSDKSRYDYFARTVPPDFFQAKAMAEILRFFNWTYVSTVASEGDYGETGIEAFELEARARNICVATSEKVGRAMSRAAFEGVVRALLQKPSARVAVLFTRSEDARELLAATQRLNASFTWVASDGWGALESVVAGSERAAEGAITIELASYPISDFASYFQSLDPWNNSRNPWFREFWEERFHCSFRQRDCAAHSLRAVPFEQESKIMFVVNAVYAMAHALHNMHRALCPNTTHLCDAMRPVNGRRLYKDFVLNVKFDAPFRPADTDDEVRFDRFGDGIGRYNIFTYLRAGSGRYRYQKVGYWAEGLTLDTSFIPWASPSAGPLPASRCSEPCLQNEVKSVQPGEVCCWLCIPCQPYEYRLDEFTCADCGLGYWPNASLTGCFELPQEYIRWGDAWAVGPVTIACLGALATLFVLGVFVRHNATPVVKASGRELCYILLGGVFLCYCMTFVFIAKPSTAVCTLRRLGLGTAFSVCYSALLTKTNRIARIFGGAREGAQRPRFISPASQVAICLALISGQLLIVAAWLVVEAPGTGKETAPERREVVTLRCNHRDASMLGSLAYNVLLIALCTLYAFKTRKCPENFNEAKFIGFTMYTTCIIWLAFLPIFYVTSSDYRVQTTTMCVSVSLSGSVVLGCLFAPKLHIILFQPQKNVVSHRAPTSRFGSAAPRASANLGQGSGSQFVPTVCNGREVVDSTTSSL

For `O=C(O)CCc1ccc(-c2ccc(=O)n(Cc3ccc(Cl)cc3)c2)cc1` [2-32], the melting point (in general, the temperature, or range, at which the solid turns liquid) was determined as 185 °C. The “Activity: left-ward shift of agonist mGluR2 concentration-response curve” value (shortened to “Activity: left-ward shift”) on native rat mGluR2 is “++ (left-ward shift of agonist mGluR2 concentration-response curve [2- to 3.5-fold])”.

Regarding `CS(=O)(=O)Nc1cccc(-c2ccc(=O)n(Cc3ccc(Cl)cc3)c2)c1` [2-55], the melting point came to 169 °C. Also, on native rat mGluR2, the “Activity: left-ward shift” value was “++ (left-ward shift of agonist mGluR2 concentration-response curve [2- to 3.5-fold])”.

In turn, `Cc1ccc(-c2ccc(=O)n(Cc3ccc(Cl)cc3)c2)nc1` [2-61] showed a melting point of 135 °C. Further, the “Activity: left-ward shift” value at native rat mGluR2 is “++ (left-ward shift of agonist mGluR2 concentration-response curve [2- to 3.5-fold])”.

Consider `COc1cccc(Cc2ccc(=O)n(Cc3ccc(Cl)cc3)c2)c1` [3-02, 5-(3-Methoxybenzyl)-1-(4-chlorobenzyl)pyridin-2(1H)-one], for which the “Activity: left-ward shift” value at native rat mGluR2 was “++ (left-ward shift of agonist mGluR2 concentration-response curve [2- to 3.5-fold])”.

`COc1ccc(-c2ccc(=O)n(Cc3ccc(Cl)cc3)c2)cc1` [4-20] yielded a melting point of 142 °C. For the same compound, on native rat mGluR2, the “Activity: left-ward shift” value is “+++ (left-ward shift of agonist mGluR2 concentration-response curve [>3.5])”.

The compound `COc1ccc(-c2ccc(=O)n(Cc3ccc(C(F)(F)F)nc3)c2)cc1.Cl` [4-47, 5-(4-Methoxyphenyl)-1-((6-(trifluoromethyl)pyridin-3-yl)methyl)-pyridin-2(1H)-one hydrochloride] displayed a melting point of 168 °C. The “Activity: left-ward shift” value at native rat mGluR2 is “+++ (left-ward shift of agonist mGluR2 concentration-response curve [>3.5])”.

`COc1ccc(-c2ccc(=O)n(Cc3ccc(F)c(F)c3)c2)cn1` [6-16] registered a melting point of 120 °C. Besides, the “Activity: left-ward shift” value on native rat mGluR2 is “++ (left-ward shift of agonist mGluR2 concentration-response curve [2- to 3.5-fold])”.

`O=c1ccc(-c2ccc(OCc3nn[nH]n3)cc2)cn1Cc1ccc(Cl)cc1F` [6-65, 5-(4-((2H-Tetrazol-5-yl)methoxy)phenyl)-1-(4-chloro-2-fluorobenzyl)pyridin-2(1H)-one] showed a melting point of 197 °C. At native rat mGluR2, the “Activity: left-ward shift” value is “+++ (left-ward shift of agonist mGluR2 concentration-response curve [>3.5])”.

Compound `O=c1ccc(-c2ccc3sccc3c2)cn1Cc1ccc(Cl)cc1F` [6-69, 1-(4-Chloro-2-fluorobenzyl)-5-(benzo[b]thiophen-5-yl)pyridin-2(1H)-one] yielded a melting point of 110 °C.

`CS(=O)(=O)NCCOc1ccc(-c2ccc(=O)n(Cc3ccc(Cl)cc3F)c2)cc1` [6-70] came in with a melting point of 139 °C.

The compound `CS(=O)(=O)NCCCOc1ccc(-c2ccc(=O)n(Cc3ccc(Cl)cc3F)c2)cc1` [6-71] showed a melting point of 157 °C.

Compound `CS(=O)(=O)NCc1cccc(-c2ccc(=O)n(Cc3ccc(Cl)cc3F)c2)c1` [6-72] gave a melting point of 110 °C.

Regarding `CS(=O)(=O)NCc1ccc(-c2ccc(=O)n(Cc3ccc(Cl)cc3F)c2)cc1` [6-73], the melting point was determined as 165 °C. Besides, the “Activity: left-ward shift” value at native rat mGluR2 is “++ (left-ward shift of agonist mGluR2 concentration-response curve [2- to 3.5-fold])”.

As to `O=c1ccc(-c2ccc(S(=O)(=O)N3CCOCC3)cc2)cn1Cc1ccc(Cl)cc1F` [6-74], the melting point is 141 °C.

Take `O=c1ccc(-c2ccc(S(=O)(=O)N3CCCC3)cc2)cn1Cc1ccc(Cl)cc1F` [6-75]: the melting point came to 177 °C.

Regarding `COc1ccc(Cn2cc(-c3ccc(C(C)=O)cc3)ccc2=O)cc1` [6-76], the melting point was determined as 97 °C.

As to `COc1ccc(Cn2cc(-c3ccc(C#N)cc3)ccc2=O)cc1` [6-77], the melting point came out at 134 °C.

Compound `COc1ccc(-c2ccc(=O)n(Cc3ccc(C(F)(F)F)nc3)c2)cn1` [6-80] registered a melting point of 160 °C.

In turn, `O=c1ccc(-c2ccccc2)cn1Cc1nc2ccccc2s1` [6-81] returned a melting point of 149 °C.

In turn, `Cl.O=c1ccc(C#Cc2cccnc2)cn1Cc1cccc(F)c1` [7-02, 1-(3-Fluorobenzyl)-5-(2-(pyridin-3-yl)ethynyl)pyridin-2(1H)-one hydrochloride] had a melting point of 179 °C. In addition, the “Activity: left-ward shift” value at native rat mGluR2 is “+ (left-ward shift of agonist mGluR2 concentration-response curve [<2])”.

In the case of `O=c1cc(OCCc2ccccc2)ccn1Cc1cccc(F)c1` [7-03, 1-(3-Fluorobenzyl)-4-phenethoxypyridin-2(1H)-one], the melting point was 93 °C.

`CC(C)CCn1cc(-c2cccc(NS(C)(=O)=O)c2)ccc1=O` [8-02, N-(3-(1-Isopentyl-6-oxo-1,6-dihydropyridin-3-yl)phenyl)methane-sulfonamide] yielded a melting point of 159 °C.

`COc1ccc(-c2cc(CO)c(=O)n(Cc3ccc(Cl)cc3)c2)cc1` [9-08, 1-(4-Chlorobenzyl)-3-(hydroxymethyl)-5-(4-methoxyphenyl)pyridin-2(1H)-one] gave a melting point of 128 °C.

Take `COCCc1cc(=O)n(Cc2ccc(Cl)cc2)cc1-c1ccc(OC)cc1` [9-17, 1-(4-Chlorobenzyl)-4-(2-methoxyethyl)-5-(4-methoxyphenyl)pyridin-2(1H)-one]: the “Activity: left-ward shift” value at native rat mGluR2 is “+ (left-ward shift of agonist mGluR2 concentration-response curve [<2])”.

As to `COc1ccc(-c2cn(Cc3ccc(Cl)cc3F)c(=O)cc2OC)cc1` [9-18, 1-(4-Chloro-2-fluorobenzyl)-4-methoxy-5-(4-methoxyphenyl)pyridin-2(1H)-one], on native rat mGluR2, the “Activity: left-ward shift” value was “+ (left-ward shift of agonist mGluR2 concentration-response curve [<2])”.

The compound `CC(C)CCn1ccc(-c2cccs2)c(C#N)c1=O` [10-28, 1,2-Dihydro-1-isopentyl-2-oxo-4-(thiophen-2-yl)pyridine-3-carbonitrile] displayed a melting point of 123 °C. For the same compound, the “Activity: left-ward shift” value on native rat mGluR2 was “+++ (left-ward shift of agonist mGluR2 concentration-response curve [>3.5])”.

With `COc1ccc(-c2ccn(Cc3cccc(F)c3)c(=O)c2)cc1` [11-03, 1-(3-Fluorobenzyl)-4-(4-methoxyphenyl)pyridin-2(1H)-one], the melting point was 114 °C. Also, the “Activity: left-ward shift” value at native rat mGluR2 is “+ (left-ward shift of agonist mGluR2 concentration-response curve [<2])”.

In turn, `COc1ccc(-c2cn(Cc3ccc(Cl)cc3)c(=O)cn2)cc1` [12-06, 1-(4-Chlorobenzyl)-5-(4-methoxyphenyl)pyrazin-2(1H)-one] displayed a melting point of 133 °C. Also, the “Activity: left-ward shift” value on native rat mGluR2 was “+ (left-ward shift of agonist mGluR2 concentration-response curve [<2])”.

As to `O=c1ccc(CNc2ccccc2)cn1Cc1ccc(Cl)cc1` [16-01], the melting point turned out to be 142 °C.

`COc1ccc(OCc2ccc(=O)n(Cc3ccc(Cl)cc3)c2)cc1` [16-02, 1-(4-Chlorobenzyl)-5-((4-methoxyphenoxy)methyl)pyridin-2(1H)-one]: the melting point was 114 °C.

The compound `O=c1ccc(COc2ccccc2)cn1Cc1ccc(F)c(F)c1` [16-03, 1-(3,4-Difluorobenzyl)-5-(phenoxymethyl)pyridin-2(1H)-one] returned a melting point of 89 °C.

Compound `O=c1ccc(COc2ccccc2)cn1Cc1ccc(Cl)cc1F` [16-04] had a melting point of 86 °C.
